How the values were obtained:
[1] = test system: Fusarium culmorum; assay: Fusarium culmorum in vitro cell test; assay type: cell-based; settings: 96 h, 20 ppm of active ingredient, liquid culture, 4 days incubation, read-out: efficacy (inhibition of fungal growth)
Protocol: • Solvent: DMSO • Culture medium: 14.6 g anhydrous D-glucose (VWR), 7.1 g Mycological Peptone (Oxoid), 1.4 g granulated Yeast Extract (Merck), QSP 1 liter • Inoculum: spore suspension
Fungicides were solubilized in DMSO and the solution used to prepare the required range of concentrations. The final concentration of DMSO used in the assay was ≤1%.
A spore suspension of Fusarium culmorum was prepared and diluted to the desired spore density.
(§1) Fungicides were evaluated for their ability to inhibit spore germination and mycelium growth in liquid culture assay. The compounds were added in the desired concentration to the culture medium with spores. After 4 days incubation, fungi-toxicity of compounds was determined by spectrometric measurement of mycelium growth. Inhibition of fungal growth was determined by comparing the absorbance values in wells containing the fungicides with the absorbance in control wells without fungicides.

[2] = test system: Colletotrichum lindemuthianum; assay: Colletotrichum lindemuthianum in vitro cell test; assay type: cell-based; settings: 144 h, 20 ppm of active ingredient, liquid culture, 6 days incubation, read-out: efficacy (inhibition of fungal growth)
Protocol: as §1, with “• Solvent: […] Fungicides were solubilized in DMSO and the solution used to prepare the required range of concentrations. The final concentration of DMSO used in the assay was 1%. A spore suspension of Colletotrichum lindemuthianum was prepared and diluted to the desired spore density. Fungicides” for “Fungicides”, “6” for “4”

[3] = test system: Pyricularia oryzae; assay: microbe, parasite or virus in culture; assay type: cell-based; settings: 120 h, read-out: efficacy (inhibition of fungal growth)
[4] = Measurement of Log P values by HPLC on reversed phase columns (EEC directive 79/831 Annex V.A8); assay type: physicochemical; settings: method [a]: LC-UV, acidic range, 0.1% formic acid in water and acetonitrile as eluent
Protocol: Measurement of Log P values as provided herein was performed according to EEC directive 79/831 Annex V.A8 by HPLC (High Performance Liquid Chromatography) on reversed phase columns with the following methods: • ^[a] Log P value is determined by measurement of LC-UV, in an acidic range, with 0.1% formic acid in water and acetonitrile as eluent (linear gradient from 10% acetonitrile to 95% acetonitrile). • ^[b] Log P value is determined by measurement of LC-UV, in a neutral range, with 0.001 molar ammonium acetate solution in water and acetonitrile as eluent (linear gradient from 10% acetonitrile to 95% acetonitrile). • ^[c] Log P value is determined by measurement of LC-UV, in an acidic range, with 0.1% phosphoric acid and acetonitrile as eluent (linear gradient from 10% acetonitrile to 95% acetonitrile).
If more than one Log P value is available within the same method, all the values are given and separated by “+”. […]

[5] = test system: Septoria tritici; assay: Septoria tritici in vitro cell test; assay type: cell-based; settings: Zymoseptoria tritici, 168 h; 20 ppm of active ingredient; liquid culture, 7 days incubation; read-out: efficacy (inhibition of fungal growth)
Protocol: • Solvent: DMSO • Culture medium: 1 g KH2PO4 (VWR), 1 g K2HPO4 (VWR), 0.5 g Urea (VWR), 3 g KNO3 (Prolabo), 10 g saccharose (VWR), 0.5 g MgSO4, 7H2O (Sigma), 0.07 g CaCl2, 2H2O (Prolabo), 0.2 mg MnSO4, H2O (Sigma), 0.6 mg CuSO4, 5H2O (Sigma), 7.9 mg ZnSO4, 7H2O (Sigma), 0.1 mg H3BO3 (Merck), 0.14 mg NaMoO4, 2H2O (Sigma), 2 mg thiamine (Sigma), 0.1 mg biotine (VWR), 4 mg FeSO4, 7H2O (Sigma), QSP 1 liter • Inoculum: spore suspension Fungicides were solubilized in DMSO and the solution used to prepare the required range of concentrations. The final concentration of DMSO used in the assay was 1%. A spore suspension of Septoria tritici was prepared and diluted to the desired spore density. Fungicides were evaluated for their ability to inhibit spore germination and mycelium growth in liquid culture assay. The compounds were added in the desired concentration to the culture medium with spores. […] Inhibition of fungal growth was determined by comparing the absorbance values in wells containing the fungicides with the absorbance in control wells without fungicides.

[6] = test system: Alternaria alternata; assay: Alternaria alternata in vitro cell test; assay type: cell-based; settings: 120 h, 20 ppm of active ingredient, liquid culture, 5 days incubation, read-out: efficacy (inhibition of fungal growth)
Protocol: as §1, with “• Solvent: […] Fungicides were solubilized in DMSO and the solution used to prepare the required range of concentrations. The final concentration of DMSO used in the assay was ≤1%. A spore suspension of Alternaria alternata was prepared and diluted to the desired spore density. Fungicides” for “Fungicides”, “5” for “4”

C#Cc1cccc(Oc2cnc3ccccc3c2C2=NOC[C@@H](Cc3ccc(C)cc3C)N2)c1 (racemic) [Compound I-016]
inhibition at 20 ppm [1]: ≥ 70% | inhibition at 20 ppm [2]: ≥ 70% | inhibition at 20 ppm [3]: ≥ 70% | chromatographic logP [4]: 4.05 | inhibition at 20 ppm [5]: ≥ 70% | inhibition at 20 ppm [6]: ≥ 70%

Cc1ccc(C[C@@H]2CON=C(c3c(Oc4cccc(C5CC5)c4F)cnc4ccccc34)N2)c(C)c1 (racemic) [Compound I-017]
inhibition at 20 ppm [1]: ≥ 70% | inhibition at 20 ppm [2]: ≥ 70% | inhibition at 20 ppm [3]: ≥ 70% | chromatographic logP [4]: 4.51 | inhibition at 20 ppm [5]: ≥ 70% | inhibition at 20 ppm [6]: ≥ 70%

C=Cc1cccc(Oc2cnc3ccccc3c2C2=NOC[C@@H](Cc3ccc(C)cc3C)N2)c1 (racemic) [Compound I-018]
inhibition at 20 ppm [1]: ≥ 70% | inhibition at 20 ppm [2]: ≥ 70% | inhibition at 20 ppm [3]: ≥ 70% | chromatographic logP [4]: 4.23 | inhibition at 20 ppm [5]: ≥ 70% | inhibition at 20 ppm [6]: ≥ 70%

Cc1ccc(C[C@@H]2CON=C(c3c(Oc4cccc(Br)c4F)cnc4ccccc34)N2)c(C)c1 (racemic) [Compound I-019]
inhibition at 20 ppm [1]: ≥ 70% | inhibition at 20 ppm [2]: ≥ 70% | inhibition at 20 ppm [3]: ≥ 70% | chromatographic logP [4]: 4.33 | inhibition at 20 ppm [5]: ≥ 70% | inhibition at 20 ppm [6]: ≥ 70%

Reference: patent US12673942B2, “Azabicyclyl-substituted heterocycles as fungicides” (Bayer Aktiengesellschaft, priority 2020, dated 2026)
